Measured values from ChEMBL document CHEMBL1151289, “Biosynthesis of ganefromycin: results from blocked mutants and bioconversion experiments” (1998).
≈ marks a conversion by molar mass, not a printed value.

These molecules were tested on Priestia megaterium (assay: Antimicrobial activity against Bacillus megaterium).
Assay type: functional

Structure (SMILES) | MIC
C/C=C\C=C\[C@@H]1O[C@](O)([C@H](C)C(=O)NC/C=C/C=C(\C)C(OC)C(C)C2CC(O)C(/C=C/C=C/C=C/C(=O)O)O2)[C@H](O)[C@H](O)C1(C)C (stereo not given in full) | 6.3 µg/mL (≈ 9.55 µM)
C/C=C\C=C\[C@@H]1O[C@](O)([C@@H](CO[C@H]2C[C@H](OC)[C@H](O[C@@H]3C[C@@H](OC)[C@@H](O[C@H]4C[C@H](OC)[C@H](O)[C@H](C)O4)[C@H](C)O3)[C@H](C)O2)C(=O)NC/C=C/C=C(\C)C(OC)C(C)C2CC(O)C(/C=C/C=C/C=C/C(=O)O)O2)C[C@H](O)C1(C)C (stereo not given in full) | 6.3 µg/mL (≈ 5.77 µM)
C/C=C\C=C\[C@@H]1O[C@](O)([C@H](CO[C@H]2C[C@H](O)[C@H](O)[C@H](C)O2)C(=O)NC/C=C/C=C(\C)C(OC)C(C)C2CC(O)C(/C=C/C=C/C=C/C(=O)O)O2)[C@H](OC(=O)Cc2ccccc2)[C@H](O)C1(C)C (stereo not given in full) | 12.5 µg/mL (≈ 13.5 µM)
C/C=C\C=C\[C@@H]1O[C@](O)([C@@H](CO[C@@H]2O[C@@H](C)[C@@H](C)[C@@H](O[C@@H]3C[C@@H](OC)[C@@H](O)[C@H](C)O3)[C@H]2OC)C(=O)NC/C=C/C=C(\C)C(OC)C(C)C2CC(O)C(/C=C/C=C/C=C/C(=O)O)O2)C[C@H](O)C1(C)C (stereo not given in full) | 12.6 µg/mL (≈ 13.1 µM)
C/C=C\C=C\[C@@H]1O[C@](O)([C@H](CO[C@@H]2O[C@@H](C)[C@@H](C)[C@@H](O[C@@H]3C[C@@H](OC)[C@@H](O)[C@H](C)O3)[C@H]2OC)C(=O)NC/C=C/C=C(\C)C(OC)C(C)C2CC(O)C(/C=C/C=C/C=C/C(=O)O)O2)C[C@H](O)C1(C)C (stereo not given in full) | 12.6 µg/mL (≈ 13.1 µM)
C/C=C\C=C\[C@@H]1O[C@](O)([C@H](CO[C@H]2C[C@H](OC)[C@H](O[C@@H]3C[C@@H](OC)[C@@H](O[C@H]4C[C@H](OC)[C@H](O)[C@H](C)O4)[C@H](C)O3)[C@H](C)O2)C(=O)NC/C=C/C=C(\C)C(OC)C(C)C2CC(O)C(/C=C/C=C/C=C/C(=O)O)O2)C[C@H](O)C1(C)C (stereo not given in full) | 6.3 µg/mL (≈ 5.77 µM)
C/C=C\C=C\[C@@H]1O[C@](O)([C@H](C)C(=O)NC/C=C/C=C(\C)C(OC)C(C)C2CC(O)C(/C=C/C=C/C=C/C(=O)O)O2)[C@H](OC(=O)Cc2ccccc2)[C@H](O)C1(C)C (stereo not given in full) | 12.5 µg/mL (≈ 16.1 µM)
C/C=C\C=C\[C@@H]1O[C@](O)([C@H](CO)C(=O)NC/C=C/C=C(\C)C(OC)C(C)C2CC(O)C(/C=C/C=C/C=C/C(=O)O)O2)[C@H](O)[C@H](O)C1(C)C (stereo not given in full) | 50 µg/mL (≈ 74 µM)
C/C=C\C=C\[C@@H]1O[C@](O)([C@H](C)C(=O)NC/C=C/C=C(\C)C(O)C(C)C2CC(O)C(/C=C/C=C/C=C/C(=O)O)O2)C[C@H](O)C1(C)C (stereo not given in full) | > 100 µg/mL
C/C=C\C=C\[C@@H]1O[C@](O)([C@@H](C)C(=O)NC/C=C/C=C(\C)C(O)C(C)C2CC(O)C(/C=C/C=C/C=C/C(=O)O)O2)C[C@H](O)C1(C)C (stereo not given in full) | > 100 µg/mL
C/C=C\C=C\[C@@H]1O[C@](O)([C@H](CO[C@H]2C[C@H](O)[C@H](O)[C@H](C)O2)C(=O)NC/C=C/C=C(\C)C(OC)C(C)C2CC(O)C(/C=C/C=C/C=C/C(=O)O)O2)[C@H](O)[C@H](OC(=O)Cc2ccccc2)C1(C)C (stereo not given in full) | 50 µg/mL (≈ 54.1 µM)
C/C=C\C=C\[C@@H]1O[C@](O)([C@H](CO[C@H]2C[C@H](OC)[C@H](O[C@@H]3C[C@@H](OC)[C@@H](O[C@H]4C[C@H](OC)[C@H](O)[C@H](C)O4)[C@H](C)O3)[C@H](C)O2)C(=O)NC/C=C/C=C(\C)C(OC)C(C)C2CC(O)C(/C=C/C=C/C=C/C(=O)O)O2)[C@H](OC(=O)Cc2ccccc2)[C@H](O)C1(C)C (stereo not given in full) | 0.4 µg/mL (≈ 0.326 µM)
C/C=C\C=C\[C@@H]1O[C@](O)([C@H](C)C(=O)NC/C=C/C=C(\C)C(O)C(C)C2CC(O)C(/C=C/C=C/C=C/C(=O)O)O2)[C@H](O)[C@H](O)C1(C)C (stereo not given in full) | 100 µg/mL (≈ 155 µM)
C/C=C\C=C\[C@@H]1O[C@](O)([C@H](CO[C@H]2C[C@H](OC)[C@H](O[C@@H]3C[C@@H](OC)[C@@H](O[C@H]4C[C@H](OC)[C@H](O)[C@H](C)O4)[C@H](C)O3)[C@H](C)O2)C(=O)NC/C=C/C=C(\C)C(OC)C(C)C(=O)CC(O)C/C=C/C=C/C=C/C(=O)O)C[C@H](O)C1(C)C (stereo not given in full) | 3.1 µg/mL (≈ 2.84 µM)
C/C=C\C=C\[C@@H]1O[C@](O)([C@H](CO[C@H]2C[C@H](O)[C@H](O)[C@H](C)O2)C(=O)NC/C=C/C=C(\C)C(OC)C(C)C2CC(O)C(/C=C/C=C/C=C/C(=O)O)O2)[C@H](O)[C@H](O)C1(C)C (stereo not given in full) | 100 µg/mL (≈ 124 µM)
